Source: PubChem BioAssay AID743072 (Broad Institute, 2013)
Activity calls are given as the source filed them. How the calls were made is not given here.

System: M. tuberculosis BioA-TetON underexpression strain, growth inhibition
Experiment: antitubercular activity, BioA-TetON-5 strain, plate reader, dry powder (AID 743072)
Details: for IC90: measured here: 90% growth inhibition

Structure (SMILES)	IC50	IC90
O=C(Nc1ccc(F)cc1)N1CCN(c2ccccc2)CC1	5.1 µM	> 50 µM
O=C(Nc1cccnc1)c1cnn2c(C(F)(F)F)cc(-c3ccccc3)nc12	> 50 µM (inactive)	> 50 µM
O=C(Nc1ccc(Cl)cc1)c1cc2nc(C3CC3)cc(C(F)(F)F)n2n1	50 µM	> 50 µM
O=C(Nc1ccc2snnc2c1)N1CCN(c2ccccc2)CC1	0.9 µM	8.3 µM
COc1cccc(C(=O)N2CCN(c3ccc(C(C)=O)cc3)CC2)c1	41.5 µM	> 50 µM
O=C(Nc1cccnc1)N1CCN(c2ccccc2)CC1	> 50 µM (inactive)	> 50 µM
O=C(Nc1ccncc1)c1cc2nc(C3CC3)cc(C(F)F)n2n1	50 µM	> 50 µM
O=C(c1ccc2c(c1)OCO2)N1CCN(c2ccc(Cl)cc2)CC1	11.3 µM	44.5 µM
Cc1ccc(/C=C(\CC(=O)O)c2nc3ccccc3s2)cc1[N+](=O)[O-]	2.9 µM	17.2 µM
CC(=O)c1ccc(N2CCN(C(=O)c3cccnc3)CC2)cc1	> 50 µM (inactive)	> 50 µM
CC(=O)c1ccc(N2CCN(Cc3ccc4c(c3)OCO4)CC2)cc1	25.2 µM	> 50 µM
CC(=O)c1ccc(N2CCN(C(=O)c3ccc4c(c3)OCCO4)CC2)cc1	> 50 µM (inactive)	> 50 µM
COc1ccc(NC(=O)N2CCN(c3ccccc3)CC2)cc1	48 µM	> 50 µM
COc1ccc(N2CCN(C(=O)c3ccc4c(c3)OCO4)CC2)cc1	17.6 µM	> 50 µM
Cc1nc2cc(NC(=O)N3CCN(c4ccccc4)CC3)ccc2o1	36 µM	> 50 µM
Cc1cccc(/C=C(\CCC(=O)O)c2nc3ccccc3s2)c1	1.8 µM	9 µM
Cc1ccc(/C=C(\CCC(=O)O)c2nc3ccccc3s2)cc1	1 µM	2.8 µM
Cc1ccccc1/C=C(\CCC(=O)O)c1nc2ccccc2s1	4.7 µM	25.3 µM
COc1cccc(NC(=O)CCC2CCN(C(=O)c3ccc(C(C)=O)s3)CC2)c1	4.4 µM	> 50 µM
CCOC(=O)N1CCN(C(=O)Nc2ccc3snnc3c2)CC1	3.8 µM	29.6 µM

Structure (SMILES)	IC50	IC90
O=C(Nc1cccnc1)c1cnn2c(C(F)F)cc(C3CC3)nc12	3.3 µM	> 50 µM
Cc1cc(C)n2nc(C(=O)Nc3cccnc3)nc2n1	50 µM	> 50 µM
CC(=O)c1ccc(N2CCN(C(=O)c3ccc(C)cc3)CC2)cc1	31.4 µM	> 50 µM
COc1cc(/C=C/C(=O)Nc2cccnc2)cc(OC)c1OC	1.3 µM	15.3 µM
Cc1ccc(-c2cc(C(F)(F)F)n3nc(C(=O)Nc4cccnc4)cc3n2)cc1	> 50 µM (inactive)	> 50 µM
O=C(c1ccc2c(c1)OCO2)N1CCN(c2ccccc2)CC1	20.9 µM	> 50 µM
O=C(Nc1ccc2snnc2c1)N1CCCCC1	22 µM	> 50 µM
CCc1ccc(N2CCN(C(=O)c3ccc4c(c3)OCO4)CC2)cc1	6.3 µM	> 50 µM
CC(=O)c1ccc(N2CCN(C(=O)c3ccc4ncsc4c3)CC2)cc1	12.9 µM	> 50 µM
CCN(CC)c1ccc2cc(C(=O)c3cccs3)c(=O)oc2c1	1.1 µM	5.6 µM
O=C(c1ccc2c(c1)OCO2)N1CCN(Cc2ccccc2)CC1	> 50 µM (inactive)	> 50 µM
CC(=O)c1ccc(N2CCN(C(=O)c3ccc(Cl)cc3)CC2)cc1	27.9 µM	> 50 µM
COc1cccc(NC(=O)N2CCN(c3ccccc3)CC2)c1	36.4 µM	> 50 µM
O=C(Nc1cccnc1)c1cc2nc(-c3cccs3)cc(C(F)(F)F)n2n1	> 50 µM (inactive)	> 50 µM
O=C(Nc1ccccc1)N1CCN(c2ccccc2)CC1	3.2 µM	48.2 µM
CC(=O)c1ccc(N2CCN(C(=O)c3cccc(Cl)c3)CC2)cc1	2.2 µM	16.5 µM
O=C(COc1ccc2ccc(=O)oc2c1)N1CCN(c2ccc(F)cc2)CC1	10.2 µM	42.7 µM
O=C(O)CC/C(=C\c1ccc([N+](=O)[O-])cc1)c1nc2ccccc2s1	1.3 µM	7.9 µM
CCc1ccc(C(=O)N2CCN(Cc3ccc4c(c3)OCO4)CC2)cc1	5.2 µM	> 50 µM
Cc1ccc(NC(=O)N2CCN(c3ccccc3)CC2)cc1	10.6 µM	> 50 µM

Structure (SMILES)	IC50	IC90
CC(=O)c1ccc(N2CCN(C(=O)c3cccc(F)c3)CC2)cc1	> 50 µM (inactive)	> 50 µM
Cc1cc(C)n2nc(C(=O)Nc3cccnc3)cc2n1	4.2 µM	> 50 µM
O=C(Nc1cccc(Cl)c1)N1CCN(c2ccccc2)CC1	4.9 µM	> 50 µM
O=C(Nc1ccc(Cl)c(-c2nc3ccccc3[nH]2)c1)c1cccnc1	1.9 µM	14.5 µM
Cc1ccc(/C=C(\CCCC(=O)O)c2nc3ccccc3s2)cc1[N+](=O)[O-]	6.1 µM	46.2 µM
O=C(Nc1ccc2[nH]ccc2c1)N1CCN(c2ccccc2)CC1	11.7 µM	> 50 µM
O=C(c1ccc2c(c1)OCO2)N1CCN(c2ccc(F)cc2)CC1	10.6 µM	> 50 µM
COc1ccc(C(=O)N2CCN(c3ccc(C(C)=O)cc3)CC2)cc1	38.5 µM	> 50 µM
COC(=O)c1c(C(=O)OC)c(-c2cccc(F)c2)n2c1CS(=O)C2 (stereo not given)	1.7 µM	34.9 µM
O=C(Nc1ccc2snnc2c1)N1CCOCC1	> 50 µM (inactive)	> 50 µM
Cc1ccc(/C=C(\CCC(=O)O)c2nc3ccccc3s2)cc1[N+](=O)[O-]	0.3 µM	0.7 µM
CC(=O)c1ccc(N2CCN(C(=O)c3ccc(Br)cc3)CC2)c(F)c1	4.9 µM	> 50 µM
COc1ccc(-c2cc(C(F)(F)F)n3nc(C(=O)Nc4cccnc4)cc3n2)cc1	0.3 µM	0.9 µM
CC(=O)c1ccc(N2CCN(C(=O)c3ccc(F)cc3)CC2)cc1	44.7 µM	> 50 µM
Cc1nc2ccc(NC(=O)N3CCN(c4ccccc4)CC3)cc2s1	1.3 µM	3.8 µM
O=C(Nc1cccc(F)c1)N1CCN(c2ccccc2)CC1	4.6 µM	32.9 µM
O=C(O)CC/C(=C\c1ccccc1[N+](=O)[O-])c1nc2ccccc2s1	50 µM	> 50 µM
CC(C)(C)c1ccc(C(=O)N2CCN(c3ccc4c(c3)OCO4)CC2)cc1	10.7 µM	29.5 µM
CC(=O)c1ccc(N2CCN(C(=O)c3ccccc3)CC2)cc1	> 50 µM (inactive)	> 50 µM
CC(=O)c1ccc(N2CCN(C(=O)c3ccc4c(c3)OCO4)CC2)cc1	1.3 µM	9.3 µM
